From patent US11440923B2, “Substituted macrocyclic indole derivatives” (Bayer Aktiengesellschaft, priority 2017, dated 2022)
Counter-ions that a name gives are not always drawn. Like-named read-outs stand apart in the source and are kept apart here.

Key:
Type in all cases: cell-based
[1] = tested on: SUDHL5 cells; assay: Induction of caspase-3/7 activity in SUDHL5 cells (Assay 4)
How it was run: (§1)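 Read-out: Caspase-Glo 3/7 luminescence (1 h, 37 °C) after cells, plated overnight, were treated with compounds for 3 h at 37 °C. Signal corrected for cell-free medium background and expressed relative to DMSO control mean.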

[2] = tested on: SUDHL10 cells; assay: Induction of caspase-3/7 activity in SUDHL10 cells (Assay 4)
How it was run: as §1

[3] = tested on: SUDHL10 cells; assay: Induction of cytotoxicity in SUDHL10 cells (Assay 6)
How it was run: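 SUDHL5 and SUDHL10 cells plated and held overnight at 37° C, then incubated 5 h at 37° C with compound. Viability measured by CellTiter-Glo luminescence after 15 min shaking at room temperature. Cell-free medium wells served as control.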

[4] = tested on: SUDHL5 cells; assay: Antiproliferation assay SUDHL5 (Assay 7)
How it was run: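 72 h antiproliferation, 37 °C, CellTiter-Glo luminescence. Day 0 plate = CI; DMSO = C0; IC50 calculated from these.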

[5] = Homo sapiens, SU-DHL10, 5 h, 5 h, CellTiter-Glo; read-out: Cytotox SUDHL10 IC50 (median)
[6] = Homo sapiens, SU-DHL-5, 72 h, read-out: Antiproli SUDHL5 IC50 (median), 72 h, CellTiter-Glo
[7] = read-out: Caspase SUDHL5 EC50 (median), caspase-3/7 induction, 3 h
[8] = read-out: Caspase SUDHL10 EC50 (median), caspase-3/7 induction, 3 h
[9] = 5 h, CellTiter-Glo; read-out: Cytotox SUDHL10 IC50 (median)
[10] = read-out: Antiproli SUDHL5 IC50 (median), 72 h, CellTiter-Glo
[11] = caspase-3/7 induction, 3 h, read-out: Caspase SUDHL5 EC50 (median)
[12] = caspase-3/7 induction, 3 h, read-out: Caspase SUDHL10 EC50 (median)
[13] = 72 h, CellTiter-Glo, read-out: Antiproli SUDHL5 IC50 (median)
[14] = Homo sapiens, SU-DHL-5, 3 h, caspase-3/7 induction, 3 h, read-out: Caspase SUDHL5 EC50 (median)
[15] = Homo sapiens, SU-DHL10, 3 h, caspase-3/7 induction, 3 h, read-out: Caspase SUDHL10 EC50 (median)
[16] = Homo sapiens, SU-DHL-5, 72 h, 72 h, CellTiter-Glo, read-out: Antiproli SUDHL5 IC50 (median)

Row | SMILES | EC50 [1, 11] [µM] | EC50 [2, 12] [µM] | IC50 [4, 13] [µM] | EC50 [1, 14] [µM] | EC50 [2, 15] [µM] | IC50 [4, 16] [µM] | IC50 [3, 5] [µM] | IC50 [3, 9] [µM] | further results
1 | Cc1c2c(nn1C)C(CCN1CCOCC1)OCCCCn1c(C(=O)O)c(CCCOc3cccc4cc(F)ccc34)c3ccc(F)c-2c31 (single isomer, unassigned; enantiomer 1) [Example 20, 4-fluoro-7-{3-[(6-fluoronaphthalen-1-yl)oxy]propyl}-2,3-dimethyl-15-[2-(morpholin-4-yl)ethyl]-2,10,11,12,13,15-hexahydropyrazolo[4′,3′:9,10][1,6]oxazacycloundecino[8,7,6-hi]indole-8-carboxylic Acid—N-ethylethanamine (Enantiomer 1)] | – | – | – | – | – | – | 0.041 | – | EC50 ([1]; Homo sapiens, SU-DHL-5, 3 h, read-out: Caspase SUDHL5 EC50 (median), caspase-3/7 induction, 3 h): 0.029 µM; EC50 ([2]; Homo sapiens, SU-DHL10, 3 h, read-out: Caspase SUDHL10 EC50 (median), caspase-3/7 induction, 3 h): 0.032 µM; IC50 [4, 6]: 0.02 µM
2 | CCc1c2c(nn1C)C(CCN1CCOCC1)OCCCCn1c(C(=O)O)c(CCCOc3cccc4ccccc34)c3ccc(F)c-2c31 (single isomer, unassigned; enantiomer 1) [Example 11, 3-ethyl-4-fluoro-2-methyl-15-[2-(morpholin-4-yl)ethyl]-7-{3-[(naphthalen-1-yl)oxy]propyl}-2,10,11,12,13,15-hexahydropyrazolo[4′,3′:9,10][1,6]oxazacycloundecino[8,7,6-hi]indole-8-carboxylic Acid—N-ethylethanamine Salt (Enantiomer 1)] | – | – | – | – | – | – | – | 0.25 | EC50 [1, 7]: 0.097 µM; EC50 [2, 8]: 0.19 µM; IC50 [4, 10]: 0.075 µM
3 | Cc1c2c(nn1C)C(CCN1CCOCC1)OCCCCn1c(C(=O)O)c(CCCOc3cccc4ccccc34)c3cccc-2c31 (single isomer, unassigned; stereoisomer 2) [Example 6, 2,3-dimethyl-15-[2-(morpholin-4-yl)ethyl]-7-[3-(naphthalen-1-yloxy)propyl]-2,10,11,12,13,15-hexahydropyrazolo[4′,3′:9,10][1,6]oxazacycloundecino[8,7,6-hi]indole-8-carboxylic Acid (Stereoisomer 2)] | 22 | 31 | 8.2 | – | – | – | – | 29 | –
4 | CCc1c2c(nn1C)C(CCN1CCOCC1)OCCCCn1c(C(=O)O)c(CCCOc3cccc4cc(F)ccc34)c3ccc(Cl)c-2c31 (racemic) [Example 22, (rac)-4-chloro-3-ethyl-7-{3-[(6-fluoronaphthalen-1-yl)oxy]propyl}-2-methyl-15-[2-(morpholin-4-yl)ethyl]-2,10,11,12,13,15-hexahydropyrazolo[4′,3′:9,10][1,6]oxazacycloundecino[8,7,6-hi]indole-8-carboxylic Acid] | – | – | – | 0.01 | 0.02 | 0.013 | 0.028 | – | –
5 | CCc1c2c(nn1C)C(CCC1CCOCC1)OCCCCn1c(C(=O)O)c(CCCOc3cccc4cc(F)ccc34)c3ccc(Cl)c-2c31 (single isomer, unassigned; enantiomer 2) [Example 62, (−)-4-chloro-3-ethyl-7-{3-[(6-fluoronaphthalen-1-yl)oxy]propyl}-2-methyl-15-[2-(oxan-4-yl)ethyl]-2,10,11,12,13,15-hexahydropyrazolo[4′,3′:9,10][1,6]oxazacycloundecino[8,7,6-hi]indole-8-carboxylic Acid (Enantiomer 2)] | 4.2 | 6.9 | 5.3 | – | – | – | – | 7.8 | –
6 | CCc1c2c(nn1C)C(CCOC)OCCCCn1c(C(=O)O)c(CCCOc3cccc4cc(F)ccc34)c3ccc(Cl)c-2c31 (racemic) [Example 41, (rac)-4-chloro-3-ethyl-7-{3-[(6-fluoronaphthalen-1-yl)oxy]propyl}-(15-rac)-(2-methoxyethyl)-2-methyl-2,10,11,12,13,15-hexahydropyrazolo[4′,3′:9,10][1,6]oxazacycloundecino[8,7,6-hi]indole-8-carboxylic Acid] | – | – | – | 0.097 | 0.13 | 0.16 | 0.16 | – | –
7 | Cc1c2c(nn1C)C(C1CC1)OCCCCn1c(C(=O)O)c(CCCOc3cccc4ccccc34)c3ccc(Cl)c-2c31 (single isomer, unassigned; enantiomer 1) [Example 35, (+)-4-chloro-15-cyclopropyl-2,3-dimethyl-7-{3-[(naphthalen-1-yl)oxy]propyl}-2,10,11,12,13,15-hexahydropyrazolo[4′,3′:9,10][1,6]oxazacycloundecino[8,7,6-hi]indole-8-carboxylic Acid N-ethylethanamine Salt (Enantiomer 1)] | – | – | – | – | – | – | – | 6.7 | EC50 [1, 7]: 2.1 µM; EC50 [2, 8]: 5.9 µM; IC50 [4, 6]: 2.7 µM
8 | Cc1c2c(nn1C)C(C)OCCCCn1c(C(=O)O)c(CCCOc3cccc4ccccc34)c3cccc-2c31 (single isomer, unassigned; stereoisomer 1) [Example 2, 2,3,15-trimethyl-7-[3-(naphthalen-1-yloxy)propyl]-2,10,11,12,13,15-hexahydropyrazolo[4′,3′:9,10][1,6]oxazacycloundecino[8,7,6-hi]indole-8-carboxylic Acid Trifluoroacetic Acid Salt (Stereoisomer 1)] | – | – | – | – | – | – | – | – | EC50 [1, 7]: 1.2 µM; EC50 [2, 8]: 2.5 µM; IC50 ([3]; read-out: Cytotox SUDHL10 IC50 (median); 5 h, CellTiter-Glo): 2.5 µM; IC50 [4, 10]: 3.5 µM

Continued, in another order:

Row | EC50 [1, 11] [µM] | EC50 [2, 12] [µM] | IC50 [4, 13] [µM] | EC50 [1, 14] [µM] | EC50 [2, 15] [µM] | IC50 [4, 16] [µM] | SMILES | IC50 [3, 5] [µM] | IC50 [3, 9] [µM] | further results
9 | – | – | – | 0.12 | 0.98 | 0.41 | Cc1c2c(nn1C)C(CCO)OCCCCn1c(C(=O)O)c(CCCOc3cccc4ccccc34)c3ccc(Cl)c-2c31 (racemic) [Example 26, (rac)-4-chloro-15-(2-hydroxyethyl)-2,3-dimethyl-7-{3-[(naphthalen-1-yl)oxy]propyl}-2,10,11,12,13,15-hexahydropyrazolo[4′,3′:9,10][1,6]oxazacycloundecino[8,7,6-hi]indole-8-carboxylic Acid] | 0.87 | – | –
10 | 5 | 9.8 | 2.3 | – | – | – | CCc1c2c(nn1C)C(CCN1CCOCC1)OCCCCn1c(C(=O)O)c(CCCOc3cccc4cc(F)ccc34)c3ccc(F)c-2c31 (single isomer, unassigned; enantiomer 2) [Example 51, (−)-3-ethyl-4-fluoro-7-{3-[(6-fluoronaphthalen-1-yl)oxy]propyl}-2-methyl-15-[2-(morpholin-4-yl)ethyl]-2,10,11,12,13,15-hexahydropyrazolo[4′,3′:9,10][1,6]oxazacycloundecino[8,7,6-hi]indole-8-carboxylic Acid (Enantiomer 2)] | – | 3.7 | –
11 | – | – | – | 0.12 | 0.15 | 0.14 | CCc1c2c(nn1C)C(CCO)OCCCCn1c(C(=O)O)c(CCCOc3cccc4cc(F)ccc34)c3ccc(Cl)c-2c31 (racemic) [Example 44, (rac)-4-chloro-3-ethyl-7-{3-[(6-fluoronaphthalen-1-yl)oxy]propyl}-(15-rac)-(2-hydroxyethyl)-2-methyl-2,10,11,12,13,15-hexahydropyrazolo[4′,3′:9,10][1,6]oxazacycloundecino[8,7,6-hi]indole-8-carboxylic Acid] | 0.2 | – | –
12 | 0.0097 | 0.0066 | 0.011 | – | – | – | CCc1c2c(nn1C)C(CCC(C)(C)O)OCCCCn1c(C(=O)O)c(CCCOc3cccc4cc(F)ccc34)c3ccc(Cl)c-2c31 (single isomer, unassigned; enantiomer 1) [Example 75, (+)-4-chloro-3-ethyl-7-{3-[(6-fluoronaphthalen-1-yl)oxy]propyl}-15-(3-hydroxy-3-methylbutyl)-2-methyl-2,10,11,12,13,15-hexahydropyrazolo[4′,3′:9,10][1,6]oxazacycloundecino[8,7,6-hi]indole-8-carboxylic Acid—N-ethylethanamine Salt (Enantiomer 1)] | – | 0.0097 | –
13 | – | – | – | 0.42 | 0.16 | 0.4 | CCc1c2c(nn1C)C(CC(C)(C)O)OCCCCn1c(C(=O)O)c(CCCOc3cccc4cc(F)ccc34)c3ccc(Cl)c-2c31 (racemic) [Example 52, (rac)-4-chloro-3-ethyl-7-{3-[(6-fluoronaphthalen-1-yl)oxy]propyl}-(15-rac)-(2-hydroxy-2-methylpropyl)-2-methyl-2,10,11,12,13,15-hexahydropyrazolo[4′,3′:9,10][1,6]oxazacycloundecino[8,7,6-hi]indole-8-carboxylic Acid] | 0.28 | – | –
14 | 0.013 | 0.026 | 0.011 | – | – | – | CCc1c2c(nn1C)C(CCN1CCOCC1)OCCCCn1c(C(=O)O)c(CCCOc3cccc4cc(F)ccc34)c3ccc(F)c-2c31 (single isomer, unassigned; enantiomer 1) [Example 50, (+)-3-ethyl-4-fluoro-7-{3-[(6-fluoronaphthalen-1-yl)oxy]propyl}-2-methyl-15-[2-(morpholin-4-yl)ethyl]-2,10,11,12,13,15-hexahydropyrazolo[4′,3′:9,10][1,6]oxazacycloundecino[8,7,6-hi]indole-8-carboxylic Acid (Enantiomer 1)] | – | 0.027 | –
